# Experimental data from article PMC9976286, “Combination of In Silico and In Vitro Screening to Identify Novel Glutamate Carboxypeptidase II Inhibitors” (Journal of Chemical Information and Modeling, 2023).
# Several values for one entry are separate records, joined by “and”; a condition that tells them apart may be missing. Equal values may be shown once.
# Molecular target: T1, Recombinant human HDAC10 (Homo sapiens, UniProt Q969S8)
# T1 construct: made in house
# T1 sequence (Q969S8 1-669): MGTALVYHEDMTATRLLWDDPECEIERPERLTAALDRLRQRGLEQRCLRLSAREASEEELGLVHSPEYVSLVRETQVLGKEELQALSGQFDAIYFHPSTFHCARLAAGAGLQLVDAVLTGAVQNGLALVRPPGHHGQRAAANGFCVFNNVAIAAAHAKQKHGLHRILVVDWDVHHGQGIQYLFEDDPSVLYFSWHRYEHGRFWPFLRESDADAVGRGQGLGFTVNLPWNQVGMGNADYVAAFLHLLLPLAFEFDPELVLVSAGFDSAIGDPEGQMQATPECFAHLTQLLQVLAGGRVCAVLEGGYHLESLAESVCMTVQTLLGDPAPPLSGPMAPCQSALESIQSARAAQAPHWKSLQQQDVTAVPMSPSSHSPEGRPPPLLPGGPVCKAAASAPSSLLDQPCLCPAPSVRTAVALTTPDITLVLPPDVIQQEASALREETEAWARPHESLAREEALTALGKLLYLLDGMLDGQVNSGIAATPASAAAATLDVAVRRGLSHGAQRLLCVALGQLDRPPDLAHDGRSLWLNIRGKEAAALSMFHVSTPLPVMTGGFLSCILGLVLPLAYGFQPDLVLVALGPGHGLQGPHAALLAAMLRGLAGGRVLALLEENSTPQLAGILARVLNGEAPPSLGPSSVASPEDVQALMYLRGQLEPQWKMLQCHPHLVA
# Test: Inhibitor specificity: fluorescence-based HDAC10 activity assay
# Assay type: biochemical
# Details: 10 μM fluorescein-labeled spermidine substrate; read-out: HDAC10 IC50
# Experimental: The fluorescence-based activity assay used was developed in-house. Recombinant human HDAC10 purified as described previously[43] (0.5 nM) was preincubated with dilution series of compounds in 50 mM 4-(2-hydroxyethyl)-1-piperazineethanesulfonic acid (HEPES), 140 mM NaCl, 10 mM KCl, 2 mg/mL bovine serum albumin (BSA), and 1 mM tris(2-carboxyethyl) phosphine, pH 7.4 at 37 °C for 10 min. The reaction was initiated by the addition of a 10 μM substrate (spermidine labeled with fluorescein, provided by the group of Prof. Mike Schutkowski)[43] in a total volume of 50 μL. Following 30-min incubation, the reaction was terminated by the addition of 5 μL of 0.5% acetic acid and centrifuged at 2000g at room temperature for 15 min to remove precipitated BSA. […] The HDAC10 inhibition was calculated using the noninhibited reaction as a control. Inhibition constants of the compounds were determined using increasing concentrations of inhibitors. The data were fitted using the GraphPad Prism software,[44] and IC50 values were calculated from the inhibition curves of two independent experiments using a nonlinear analysis protocol.
row,SMILES,IC50
1,O=C(O)CSC1=C(SCC(=O)O)C(=O)C(SCC(=O)O)=C(SCC(=O)O)C1=O [Compound 17],2210 nM and 2200 nM
2,O=[N+]([O-])c1ccc(C(CCc2nnn[nH]2)(CCc2nnn[nH]2)c2nnn[nH]2)cc1 [Compound 18],> 100000 nM

# Same assay, conditions: HDAC10 IC50, 10 μM fluorescein-labeled spermidine substrate
row,SMILES,IC50 [nM]
1,O=C(O)c1ccccc1-c1c2ccc(=O)c(I)c-2oc2c(I)c(OS(=O)(=O)c3ccc(Br)cc3)ccc12 [Compound 46],> 100000

# Same assay, conditions: off-target specificity
row,SMILES,HDAC10 inhibition (in words)
1,O=[N+]([O-])c1ccc(C(CCc2nnn[nH]2)(CCc2nnn[nH]2)c2nnn[nH]2)cc1 [Compound 18],did not exhibit any HDAC10 inhibition
2,O=C(O)c1ccccc1-c1c2ccc(=O)c(I)c-2oc2c(I)c(OS(=O)(=O)c3ccc(Br)cc3)ccc12 [Compound 46],did not exhibit any HDAC10 inhibition

# Test system: GCPII
# Test: not given
# Details: dataset of 54 GCPII ligands compiled from the PDB; read-out: IC50[nM] (54 actives, PDB ID); cited from earlier work
row,SMILES,IC50 [nM]
1,CC[C@@H](C)[C@H](NC(=O)c1ccc(F)cc1)C(=O)N[C@@H](CO[P@@](=O)(O)N[C@@H](CCC(=O)O)C(=O)O)C(=O)O [Compound 4P44],16
2,O=C(O)CC[C@H](N[P@](=O)(O)OC[C@H](NC(=O)c1ccccc1)C(=O)O)C(=O)O [Compound 4P4I],35
3,CC(C)[C@H](NC(=O)c1ccc(F)cc1)C(=O)N[C@@H](CO[P@@](=O)(O)N[C@@H](CCC(=O)O)C(=O)O)C(=O)O [Compound 4P45],16
4,O=C(O)CC[C@H](N[P@](=O)(O)OCCNC(=O)c1ccccc1)C(=O)O [Compound 4P4D],1800
5,CSCC[C@H](NC(=O)N[C@@H](CCCCNC(=O)c1ccc(I)cc1)C(=O)O)C(=O)O [Compound 3SJF],23
6,CSC[C@H](NC(=O)N[C@@H](CCC(=O)O)C(=O)O)C(=O)O [Compound 3D7G],17
7,O=C(O)CC[C@H](NC(=O)N[C@@H](Cc1ccc(O)c(I)c1)C(=O)O)C(=O)O [Compound 3D7F],0.5
8,CN(C(=O)CCC[C@H](NC(=O)N[C@@H](CCC(=O)O)C(=O)O)C(=O)O)c1ccc(F)nc1 [Compound 6H7Z],0.13
9,O=C(O)CC[C@H](N[P@](=O)(O)OCCCCc1ccccc1)C(=O)O [Compound 4P4E],180
10,O=C(O)CC[C@H](N[P@](=O)(O)OCCC[C@H](NC(=O)CC[C@H](NC(=O)c1ccc(F)cc1)C(=O)O)C(=O)O)C(=O)O [Compound 4LQG],1.3
11,O=C(O)CC[C@H](NC(=O)N[C@@H](CCCC(=O)N(CCNC(=O)c1ccc(F)nc1)c1ccccc1)C(=O)O)C(=O)O [RNA 2-49-1],0.075
12,O=C(O)CC[C@H](NC(=O)N[C@@H](CCCC(=O)Nc1ccc(F)nc1)C(=O)O)C(=O)O [Compound 6HKJ],0.99
13,O=C(CC[C@@H](Cc1ccc(C(=O)O)cc1)C(=O)O)NO [Compound 5D29],97
14,O=C(O)CC[C@H](NC(=O)N[C@@H](CSCc1ccc(F)cc1)C(=O)O)C(=O)O [Compound 3D7D],14
15,O=C(O)CC[C@H](NC(=O)N[C@@H](CCCC(=O)NCc1ccc(F)cc1)C(=O)O)C(=O)O [Compound 5OF0],2.32
16,O=C(O)CC[C@H](N[P@](=O)(O)OCc1ccc(-c2ccccc2)cc1)C(=O)O [Compound 4P4F],168
17,O=C(O)CC[C@H](N[P@](=O)(O)OC[C@@H](NC(=O)c1ccccc1)C(=O)O)C(=O)O [Compound 4P4J],700
18,O=C(O)CC[C@H](NC(=O)N[C@@H](CCCCn1cc(COCCOCCNc2ccc([N+](=O)[O-])cc2[N+](=O)[O-])nn1)C(=O)O)C(=O)O [Compound 2XEI],0.54
19,N[C@@H](Cn1oc(=O)[nH]c1=O)C(=O)O [Compound 2JBK],9500

# Same assay, conditions: dataset of 54 GCPII ligands compiled from the PDB; read-out: Ki[nM] (54 actives, PDB ID); cited from earlier work
row,SMILES,Ki [nM]
1,O=C(N[C@@H](CCCCNC(=O)c1ccc(I)cc1)C(=O)O)N[C@@H](Cc1ccco1)C(=O)O [Compound 4OC3],5.3
2,O=CNCCCC[C@H](NC(=O)N[C@@H](CCC(=O)O)C(=O)O)C(=O)O [Compound 4NGN],0.268
3,O=C(N[C@@H](CCCCNC(=O)c1ccc(I)cc1)C(=O)O)N[C@@H](Cc1ccncc1)C(=O)O [Compound 4OC4],105
4,O=C(N[C@@H](CCCCNC(=O)c1ccc(I)cc1)C(=O)O)NC1(C(=O)O)CC1 [Compound 4OC0],318

# Same assay, conditions: listed by ChEMBL ID or PDB ID; read-out: GCPII IC50 (Fig. S20, inhibitors with subnanomolar activities); cited from earlier work
row,SMILES,IC50 [nM]
1,CN(C(=O)CCC[C@H](NC(=O)N[C@@H](CCC(=O)O)C(=O)O)C(=O)O)c1ccc(F)cc1 [CHEMBL4288368],0.2
2,CN(Cc1ccc(F)cc1)C(=O)CCC[C@H](NC(=O)N[C@@H](CCC(=O)O)C(=O)O)C(=O)O [CHEMBL4283406],0.64
3,N[C@@H](CCC(=O)N[C@@H](COP(=O)(O)O[C@@H](CCC(=O)O)C(=O)O)C(=O)O)C(=O)O [CHEMBL1289263],0.55

# Same assay, conditions: read-out: GCPII IC50; cited from earlier work
row,SMILES,IC50 [nM]
1,O=C(O)CC[C@H](NC(=O)N[C@@H](CCCC(=O)N(CCNC(=O)c1ccc(F)nc1)c1ccccc1)C(=O)O)C(=O)O [RNA 2-49-1],0.08

# Molecular target: T2, Recombinant human GCPII (Homo sapiens, UniProt Q04609)
# T2 construct: made in house
# Test: GCPII IC50 with substrate concentration 10x above KM (mode of inhibition)
# Assay type: biochemical
# Details: IC50 at 1 μM substrate relative to IC50 at 100 nM substrate
# Experimental: The inhibitory potency of the selected compounds against GCPII was determined using a fluorescence-based assay developed in-house. Recombinant human GCPII purified as described previously[40],[41] (final concentration 0.02 nM) was preincubated with 20 μM test compound for the screening in 50 mM Tris-HCl, 150 mM NaCl, 0.001% C12E8 at 37 °C for 10 min. […] Following 15 min incubation, the reaction was terminated by the addition of 5 μL of 0.1% TFA in 5% acetonitrile. Reaction mixtures were then analyzed by RP-HPLC with a Kinetex 2.6 μm XB-C18 100 Å column with a fluorescence detector set to λEX/λEM = 492/516. The GCPII inhibition in the SPECS hits samples was calculated using the noninhibited reaction as a control. Inhibition constants of the compounds active in the in vitro screening were determined using increasing concentrations of inhibitors. The data were fitted using the GraphPad Prism software, and IC50 values were calculated from the inhibition curves of two independent experiments using a nonlinear analysis protocol.
# T2 sequence (Q04609 whole entry): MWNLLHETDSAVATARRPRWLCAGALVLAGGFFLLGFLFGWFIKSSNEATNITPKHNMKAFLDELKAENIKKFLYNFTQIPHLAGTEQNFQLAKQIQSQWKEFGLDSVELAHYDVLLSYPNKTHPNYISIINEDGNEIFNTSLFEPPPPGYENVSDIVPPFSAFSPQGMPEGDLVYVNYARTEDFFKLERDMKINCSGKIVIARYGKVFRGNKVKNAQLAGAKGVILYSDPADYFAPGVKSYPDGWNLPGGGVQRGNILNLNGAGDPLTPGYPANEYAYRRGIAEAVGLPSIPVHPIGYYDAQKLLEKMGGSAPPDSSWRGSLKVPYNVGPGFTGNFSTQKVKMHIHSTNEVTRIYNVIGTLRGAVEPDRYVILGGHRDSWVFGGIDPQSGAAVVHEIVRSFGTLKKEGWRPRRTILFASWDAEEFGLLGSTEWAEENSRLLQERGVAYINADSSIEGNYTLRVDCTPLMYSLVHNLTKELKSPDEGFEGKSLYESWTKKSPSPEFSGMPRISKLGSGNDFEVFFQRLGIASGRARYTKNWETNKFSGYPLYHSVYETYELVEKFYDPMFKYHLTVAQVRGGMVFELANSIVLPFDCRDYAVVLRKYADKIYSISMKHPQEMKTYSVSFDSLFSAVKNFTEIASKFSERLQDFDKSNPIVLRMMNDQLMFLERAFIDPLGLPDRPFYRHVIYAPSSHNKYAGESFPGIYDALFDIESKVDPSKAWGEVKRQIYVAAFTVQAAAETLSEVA
row,SMILES,Increase of GCPII IC50 at 10x KM substrate versus KM
1,O=C(O)CSC1=C(SCC(=O)O)C(=O)C(SCC(=O)O)=C(SCC(=O)O)C1=O [Compound 17],approximately twice
2,O=[N+]([O-])c1ccc(C(CCc2nnn[nH]2)(CCc2nnn[nH]2)c2nnn[nH]2)cc1 [Compound 18],approximately twice
3,O=C(O)c1ccccc1-c1c2ccc(=O)c(I)c-2oc2c(I)c(OS(=O)(=O)c3ccc(Br)cc3)ccc12 [Compound 46],4 fold

# Same assay, conditions: substrate concentration 10 times above KM (1 μM); read-out: GCPII IC50 10x > KM
row,SMILES,IC50 [nM]
1,O=C(O)CSC1=C(SCC(=O)O)C(=O)C(SCC(=O)O)=C(SCC(=O)O)C1=O [Compound 17],9390
2,O=[N+]([O-])c1ccc(C(CCc2nnn[nH]2)(CCc2nnn[nH]2)c2nnn[nH]2)cc1 [Compound 18],27600
3,O=C(O)c1ccccc1-c1c2ccc(=O)c(I)c-2oc2c(I)c(OS(=O)(=O)c3ccc(Br)cc3)ccc12 [Compound 46],1350

# Same assay, conditions: substrate concentration 10 times above KM (1 μM); read-out: GCPII IC50 at substrate concentration 10 times above the KM
row,SMILES,IC50 [nM]
1,O=C(O)CSC1=C(SCC(=O)O)C(=O)C(SCC(=O)O)=C(SCC(=O)O)C1=O [Compound 17],9400 ± 100
2,O=[N+]([O-])c1ccc(C(CCc2nnn[nH]2)(CCc2nnn[nH]2)c2nnn[nH]2)cc1 [Compound 18],> 20000
3,O=C(O)c1ccccc1-c1c2ccc(=O)c(I)c-2oc2c(I)c(OS(=O)(=O)c3ccc(Br)cc3)ccc12 [Compound 46],1400 ± 100

# Molecular target: T2, Recombinant human GCPII
# Test: In vitro GCPII inhibition assay, fluorescence-based, RP-HPLC readout (screening at 20 μM and IC50)
# Assay type: biochemical
# Details: compound at 20 μM; 100 nM fluorescein-labeled Glu-Glu dipeptide substrate; read-out: Inhibition [%] of GCPII activity
# Experimental: The inhibitory potency of the selected compounds against GCPII was determined using a fluorescence-based assay developed in-house. Recombinant human GCPII purified as described previously[40],[41] (final concentration 0.02 nM) was preincubated with 20 μM test compound for the screening in 50 mM Tris-HCl, 150 mM NaCl, 0.001% C12E8 at 37 °C for 10 min. The reaction was initiated by the addition of 100 nM Glu-Glu dipeptide labeled with fluorescein (substrate)[42] in a total volume of 50 μL. Following 15 min incubation, the reaction was terminated by the addition of 5 μL of 0.1% TFA in 5% acetonitrile. […] The data were fitted using the GraphPad Prism software, and IC50 values were calculated from the inhibition curves of two independent experiments using a nonlinear analysis protocol.
row,SMILES,inhibition at 20 µM [%]
1,O=[N+]([O-])c1ccc(C(CCc2nnn[nH]2)(CCc2nnn[nH]2)c2nnn[nH]2)cc1 [Compound 18],> 50

# Same assay, conditions: substrate concentration at KM (100 nM Glu-Glu dipeptide labeled with fluorescein)
row,SMILES,IC50
1,O=C(O)CSC1=C(SCC(=O)O)C(=O)C(SCC(=O)O)=C(SCC(=O)O)C1=O [Compound 17],4500 nM and 4510 nM
2,O=[N+]([O-])c1ccc(C(CCc2nnn[nH]2)(CCc2nnn[nH]2)c2nnn[nH]2)cc1 [Compound 18],15000 nM
3,O=C(O)c1ccccc1-c1c2ccc(=O)c(I)c-2oc2c(I)c(OS(=O)(=O)c3ccc(Br)cc3)ccc12 [Compound 46],353 ± 24 nM
